Measurements reported in PubChem BioAssay (NCI).
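Compound exposure: 48 hours, 5 concentrations, 96-well plates. Here, GI50 denotes the concentration required for 50% inhibition of growth. TGI is the concentration that stops growth completely.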

Assays:
Assay in all cases: inhibition of tumour cell growth, NCI panel, 48 h
K-562 leukemia = tested on: K-562 leukemia
UACC-257 melanoma = tested on: UACC-257 melanoma
OVCAR-3 ovarian = tested on: OVCAR-3 ovarian
SF-539 CNS = tested on: SF-539 CNS
SF-295 CNS = tested on: SF-295 CNS
HT29 colon = tested on: HT29 colon
NCI/ADR-RES ovarian = tested on: NCI/ADR-RES ovarian
OVCAR-8 ovarian = tested on: OVCAR-8 ovarian
CCRF-CEM leukemia = tested on: CCRF-CEM leukemia
NCI-H226 lung = tested on: NCI-H226 lung
KM12 colon = tested on: KM12 colon
SK-MEL-5 melanoma = tested on: SK-MEL-5 melanoma
HL-60(TB) leukemia = tested on: HL-60(TB) leukemia
MDA-MB-435 = tested on: MDA-MB-435
IGROV1 ovarian = tested on: IGROV1 ovarian
NCI-H23 lung = tested on: NCI-H23 lung
DU-145 prostate = tested on: DU-145 prostate
A498 renal = tested on: A498 renal
PC-3 prostate = tested on: PC-3 prostate
NCI-H460 lung = tested on: NCI-H460 lung
ACHN renal = tested on: ACHN renal
CAKI-1 renal = tested on: CAKI-1 renal
SNB-19 CNS = tested on: SNB-19 CNS
SN12C renal = tested on: SN12C renal
LOX IMVI melanoma = tested on: LOX IMVI melanoma
RXF 393 renal = tested on: RXF 393 renal
COLO 205 colon = tested on: COLO 205 colon
OVCAR-4 ovarian = tested on: OVCAR-4 ovarian
NCI-H522 lung = tested on: NCI-H522 lung
TK-10 renal = tested on: TK-10 renal
HOP-62 NSCLC = tested on: HOP-62 NSCLC
MOLT-4 leukemia = tested on: MOLT-4 leukemia
MALME-3M melanoma = tested on: MALME-3M melanoma
OVCAR-5 ovarian = tested on: OVCAR-5 ovarian
EKVX NSCLC = tested on: EKVX NSCLC
UACC-62 melanoma = tested on: UACC-62 melanoma
MDA-MB-231 breast = tested on: MDA-MB-231 breast
T-47D breast = tested on: T-47D breast
UO-31 renal = tested on: UO-31 renal
MCF7 breast = tested on: MCF7 breast
M14 melanoma = tested on: M14 melanoma
786-0 renal = tested on: 786-0 renal
A549 NSCLC = tested on: A549 NSCLC
SK-MEL-2 melanoma = tested on: SK-MEL-2 melanoma
U251 CNS = tested on: U251 CNS
SF-268 CNS = tested on: SF-268 CNS
HCT-116 colon = tested on: HCT-116 colon
BT-549 breast = tested on: BT-549 breast
HCC-2998 colon = tested on: HCC-2998 colon
SK-OV-3 ovarian = tested on: SK-OV-3 ovarian
SW-620 colon = tested on: SW-620 colon
RPMI-8226 leukemia = tested on: RPMI-8226 leukemia
SR leukemia = tested on: SR leukemia
HS 578T breast = tested on: HS 578T breast
HOP-92 NSCLC = tested on: HOP-92 NSCLC
SK-MEL-28 melanoma = tested on: SK-MEL-28 melanoma
HCT-15 colon = tested on: HCT-15 colon

Structure (SMILES): C/C(Cc1ccc(Cl)cc1)=C(\c1ccc(OCCN2CCCCCC2)cc1)c1ccc(OC(=O)c2ccccc2)cc1
- GI50 (K-562 leukemia): 1.55 µM
- TGI (K-562 leukemia): 5.88 µM
- GI50 (UACC-257 melanoma): 6.18 µM
- TGI (UACC-257 melanoma): 13 µM
- GI50 (OVCAR-3 ovarian): 3.78 µM
- TGI (OVCAR-3 ovarian): 10.2 µM
- GI50 (SF-539 CNS): 5.18 µM
- TGI (SF-539 CNS): 11.4 µM
- GI50 (SF-295 CNS): 2.27 µM
- TGI (SF-295 CNS): 8.48 µM
- GI50 (HT29 colon): 1.64 µM
- TGI (HT29 colon): 5.75 µM
- GI50 (NCI/ADR-RES ovarian): 3.24 µM
- TGI (NCI/ADR-RES ovarian): 11.3 µM
- GI50 (OVCAR-8 ovarian): 2.85 µM
- TGI (OVCAR-8 ovarian): 9.35 µM
- GI50 (CCRF-CEM leukemia): 1.12 µM
- TGI (CCRF-CEM leukemia): 3.79 µM
- GI50 (NCI-H226 lung): 8.45 µM
- TGI (NCI-H226 lung): 17.5 µM
- GI50 (KM12 colon): 2.36 µM
- TGI (KM12 colon): 9.23 µM
- GI50 (SK-MEL-5 melanoma): 2.3 µM
- TGI (SK-MEL-5 melanoma): 8.48 µM
- GI50 (HL-60(TB) leukemia): 1.62 µM
- TGI (HL-60(TB) leukemia): 9.03 µM
- GI50 (MDA-MB-435): 2.65 µM
- TGI (MDA-MB-435): 9.27 µM
- GI50 (IGROV1 ovarian): 2.72 µM
- TGI (IGROV1 ovarian): 10.3 µM
- GI50 (NCI-H23 lung): 4.69 µM
- TGI (NCI-H23 lung): 12.6 µM
- GI50 (DU-145 prostate): 4.26 µM
- TGI (DU-145 prostate): 11.1 µM
- GI50 (A498 renal): 5.37 µM
- TGI (A498 renal): 11.4 µM
- GI50 (PC-3 prostate): 1.7 µM
- TGI (PC-3 prostate): 7.29 µM
- GI50 (NCI-H460 lung): 1.61 µM
- TGI (NCI-H460 lung): 5.23 µM
- GI50 (ACHN renal): 5.77 µM
- TGI (ACHN renal): 12.8 µM
- GI50 (CAKI-1 renal): 3.08 µM
- TGI (CAKI-1 renal): 10.6 µM
- GI50 (SNB-19 CNS): 5.29 µM
- TGI (SNB-19 CNS): 14.6 µM
- GI50 (SN12C renal): 3.19 µM
- TGI (SN12C renal): 10.3 µM
- GI50 (LOX IMVI melanoma): 1.25 µM
- TGI (LOX IMVI melanoma): 3.22 µM
- GI50 (RXF 393 renal): 2.49 µM
- TGI (RXF 393 renal): 9.15 µM
- GI50 (COLO 205 colon): 1.71 µM
- TGI (COLO 205 colon): 7.34 µM
- GI50 (OVCAR-4 ovarian): 1.88 µM
- TGI (OVCAR-4 ovarian): 8.51 µM
- GI50 (NCI-H522 lung): 5.78 µM
- TGI (NCI-H522 lung): 12.9 µM
- GI50 (TK-10 renal): 6.03 µM
- TGI (TK-10 renal): 13.3 µM
- GI50 (HOP-62 NSCLC): 5.98 µM
- TGI (HOP-62 NSCLC): 12.3 µM
- GI50 (MOLT-4 leukemia): 1.29 µM
- TGI (MOLT-4 leukemia): 5.95 µM
- GI50 (MALME-3M melanoma): 1.76 µM
- TGI (MALME-3M melanoma): 6.56 µM
- GI50 (OVCAR-5 ovarian): 4.64 µM
- TGI (OVCAR-5 ovarian): 11.7 µM
- GI50 (EKVX NSCLC): 4.32 µM
- TGI (EKVX NSCLC): 16.6 µM
- GI50 (UACC-62 melanoma): 1.3 µM
- TGI (UACC-62 melanoma): 3.9 µM
- GI50 (MDA-MB-231 breast): 2.15 µM
- TGI (MDA-MB-231 breast): 8.22 µM
- GI50 (T-47D breast): 1.43 µM
- TGI (T-47D breast): 9.73 µM
- GI50 (UO-31 renal): 1.39 µM
- TGI (UO-31 renal): 7.3 µM
- GI50 (MCF7 breast): 0.358 µM
- TGI (MCF7 breast): 6.92 µM
- GI50 (M14 melanoma): 1.01 µM
- TGI (M14 melanoma): 2.36 µM
- GI50 (786-0 renal): 2.99 µM
- TGI (786-0 renal): 9.44 µM
- GI50 (A549 NSCLC): 4.27 µM
- TGI (A549 NSCLC): 12.6 µM
- GI50 (SK-MEL-2 melanoma): 6.92 µM
- TGI (SK-MEL-2 melanoma): 14 µM
- GI50 (U251 CNS): 2.61 µM
- TGI (U251 CNS): 8.96 µM
- GI50 (SF-268 CNS): 3.03 µM
- TGI (SF-268 CNS): 10.7 µM
- GI50 (HCT-116 colon): 1.34 µM
- TGI (HCT-116 colon): 4.54 µM
- GI50 (BT-549 breast): 6.27 µM
- TGI (BT-549 breast): 12.7 µM
- GI50 (HCC-2998 colon): 1.38 µM
- TGI (HCC-2998 colon): 3.53 µM
- GI50 (SK-OV-3 ovarian): 5.8 µM
- TGI (SK-OV-3 ovarian): 13.2 µM
- GI50 (SW-620 colon): 2.52 µM
- TGI (SW-620 colon): 9.7 µM
- GI50 (RPMI-8226 leukemia): 1.16 µM
- TGI (RPMI-8226 leukemia): 3.28 µM
- GI50 (SR leukemia): 1.25 µM
- TGI (SR leukemia): 3.8 µM
- GI50 (HS 578T breast): 4.29 µM
- TGI (HS 578T breast): 14.4 µM
- GI50 (HOP-92 NSCLC): 1.1 µM
- TGI (HOP-92 NSCLC): 4.43 µM
- GI50 (SK-MEL-28 melanoma): 1.15 µM
- TGI (SK-MEL-28 melanoma): 2.94 µM
- GI50 (HCT-15 colon): 1.73 µM
- TGI (HCT-15 colon): 7.53 µM
